The test system of series [1] is IL-6 release from NHEKs. Description: PMA/A23187-induced IL-6 release from NHEKs (ELISA, normalized to viability). The format is cell-based, human. As to conditions: 24 h, vs stimulated EtOH 0.1% condition. How it is done: The Normal Human foreskin-derived Epidermal Keratinocytes (NHEKs, Lonza, 00192906), isolated from foreskin of 3 Caucasian donors, were grown in Epilife medium (Fisher Scientific, M-EPI-500-A) supplemented with Human Keratinocyte Growth Supplement (HKGS, Fisher Scientific, S-001-5) and antibiotics (Gentamycin, Fisher Scientific, 15710-049). The cells were maintained in a humidified incubator at 37° C. with a 5% CO2 atmosphere.
E4 and E2, provided as powder, were dissolved in 100% ethanol at 0.1M. They were then further diluted in ethanol and in culture medium to reach the appropriate concentrations. […] Practically, stock solutions 1000-fold concentrated were prepared in 100% ethanol, aliquoted and stored at −20° C. until cell application.
In order to induce the release of IL-6, NHEKs were exposed for 24 h with phorbol myristate acetate (PMA) at 10 ng/mL, in combination with calcium ionophore A23187 (Sigma Aldrich, C5722) at 2 μM. The treatments with the test or reference items were performed simultaneously with the inflammatory challenge. […] E4 was applied at 10^−4, 10^−5, 10^−6, 10^−7 and 10^−8 M and E2 at 10^−5, 10^−6, 10^−7, 10^−8 and 10^−9 M EtOH at 0.1% was tested as solvent control. Dexamethasone at 10 μM was used as anti-inflammatory reference. At the end of 24 h treatment, supernatants were harvested and stored at −20° C., and cell viability assay was assessed by MTS (see section 5). The kinetics of the treatments is outlined in FIG. 12. All the treatments were performed in triplicates (n=3).
The quantification of the release of inflammatory markers was performed using specific ELISA kits, based on standard curves, according to supplier's specifications. The results were then normalized to the corresponding cell viability (obtained by MTS assay).
The supplier's reference of the kits used for IL-6 quantification is as follows: IL-6, BioTechne, D6050.
At the end of the treatments and culture media collection, the viability of the cells was evaluated using the MTS (3-(4,5-dimethythiazol-2-yl)-5-(3-carboxy-methoxyphenyl)-2-(4-sulfophenyl)-2H-tetrazolium) assay. The effects of the treatments were compared to the untreated control condition and to the solvent control (EtOH 0.1%). The viability data were used in order to normalize the quantities of released inflammatory mediators.
NHEKs were treated as described in the methodology section. The quantification of IL-6 by ELISA was performed from the collected supernatants, following the instructions of the kit provider. Only 3 concentrations of the test items (chosen in accordance with the Sponsor following the results of the viability assay) were assessed in the ELISA.
For orientation: In an ELISA, binding on a coated surface is turned into a signal by an enzyme label.

Series [2] has as its system Normal Human Dermal Fibroblasts (NHDFs). Description: Colonization of a standard acellular area (IBIDI chamber gap closure) by fibroblasts. The format is cell-based. As to conditions: vs ethanol control; for NHDF Migration (+MMC) (colonization of the acellular area): presence of MMC, 6 h and 24 h. As for the experimental part:
The study consists in an in vitro assay aiming to evaluate the properties of E4 and E2 at 4 concentrations each on keratinocytes and fibroblasts. In this assay, the measurement of the colonization of a standard acellular surface generated from a confluent monolayer of cells using a dedicated culture device (IBIDI chamber) is performed. The assay is performed in absence and in presence of a proliferation inhibitor to focus on cell proliferation and migration or on migration only, respectively.
Normal Human forskin-derived Dermal Fibroblats (NHDFs, ATCC) cells were grown in phenol-free Dulbecco's Modified Eagle Medium (DMEM, ThermoFisher Scientific) supplemented with 10% of Foetal Bovine Serum (FBS, ThermoFisher Scientific), L-glutamine and antibiotics. The cells were maintained in a humidified incubator at 37° C. with a 5% CO2 atmosphere.
Cells were plated in 2-well silicone inserts with a defined cell free gap (IBIDI chambers; IBIDI GmbH, 80209) that was previously inserted on 12-well culture plates. This culture device allows to create a standardized 500 μm±100 μm cell free gap for monitoring cell colonization. 24 h after seeding, when the culture reached high confluency, cells in the insert were treated, or not, with mitomycin C (MMC) at 10 μg/ml during 2 h. After these 2 hours, the insert was removed, and cells were treated with E2 or E4 in presence or not of MMC for additional 2 h. Then, if appropriate, the culture medium was removed and cells were treated with E2 or E4 for 22 h, in absence of MMC.
For the assay, keratinocytes were plated in Epilife medium without HKGS and all the treatments were performed in this medium. Fibroblasts were plated in DMEM medium containing only 2,5% of FBS and the treatments were performed in absence of FBS.
E2 and E4 were applied at 4 concentrations each (10^−7M, 10^−8M, 10^−9M, 10^−10M). In parallel, cells were treated with a positive control (HKGS 1% for human keratinocytes and PDGF-BB at 10 ng/ml for human fibroblasts).
To monitor cell colonization and to evaluate the gap closure rate, pictures of the gap were taken after different times: at time 0 h, corresponding to the beginning of the treatment with E2 or E4 and to the removal of the culture insert, at time 6 h and at time 24 h (corresponding to the end of the treatments with E2 or E4). Pictures were taken with a microscope Zeiss (Axiover 25-10× objective) and with a camera Invenio2EIII (DeltaPix—Lux-Optic). The colonized areas were quantified from the pictures by the use of the WimAsis platform—WimScratch software. For each insert, 3 pictures were taken at each time. As each condition was performed in triplicates, it means a total of 9 pictures per condition and per time point of acquisition

For series [3] the following is noted: female, Lister Hooded, rat, in vivo, 0.5 h.
Procedure: Tissue distribution was determined in female rats (partially pigmented and non-pigmented) using [^14C]-estetrol.
A group of six female Lister Hooded rats each received a single oral dose of [^14C]-estetrol. At each selected time (see below) one animal was killed (by overdose of CO2) followed by immediate snap freezing in hexane/solid CO2. The carcasses were retained for examination of the tissue distribution of radioactivity using the technique of quantitative whole body autoradiography (QWBA).
Times for analysis were: (0.5, 8, and 24 hours, 7, 14 and 35 days)
Frozen carcasses were subjected to whole-body autoradiography.
Where concentrations are reported, radioactivity was assumed to be associated with [^14C]-estetrol or any metabolic products derived from [^14C]-estetrol. The specific activities of the dosed test compounds were used for the calculation of concentrations in all cases. Recoveries of radioactivity are reported as percentage of administered radioactivity (% dose). Radioactivity concentrations are also reported as pg equivalents/g.
The conditions of series [4]: in humans; unlike other estrogens; cited from earlier work.
The test system of series [5] is primary human dermal fibroblasts. Description: Fibroblast monolayer scratch assay, human fibroblasts. Format: cell-based. As to conditions: human fibroblasts from three female donors; 10^−10M to 10^−6 M; pilot experiments. How it is done:
Human skin was transferred to the laboratory in holding media (DMEM containing 4% penicillin-streptomycin and Amphotericin B solution) within 30 minutes of collection. Once defatted, the skin was rinsed in HBSS with 4% PSA followed by DPBS without antibiotics, then cut into thin strips and floated on 0.2% Dispase II in DPBS overnight at 4° C., followed by manual separation of the epidermis from the dermis. Primary human epidermal keratinocytes and primary human dermal fibroblasts were then isolated.
Confluent wells of both primary keratinocytes and fibroblasts were subjected to a highly validated scratch wounding procedure (using a 1 mL sterile filter tip). Post-scratching, cells were rinsed with DPBS and cell-specific media containing treatments added to each well. Cells were imaged on a ptychographic live cell imaging platform (Livecyte 2™, Phasefocus) for 24-48 hours. Automated tracking of individual unlabeled cells will be combined with 3D cell measurements to quantify a range of wound-relevant cell parameters including scratch closure rate.
Dose range finding experiments were conducted with E4 (10^−10M to 10^−6M) and E2 with and without Mitomycin C (MMC, to inhibit proliferation) using vehicle as negative controls.

Each structure is given as a SMILES string. “Also recorded” adds a separate entry of the source.

Data on 1 molecule can be found in patent publication US20250325467A1, “COMPOSITIONS FOR PREVENTING OR TREATING SKIN AGING” (ESTETRA SRL, priority 2021, published 2025).

As for `C[C@]12CC[C@@H]3c4ccc(O)cc4CC[C@H]3[C@@H]1[C@@H](O)[C@@H](O)[C@@H]2O` [E4, 1,3,5 (10)-estratrien-3,15alpha,16alpha,17beta-tetrol], the “PMA/A23187-induced IL-6 release” value in series [1] (10^−5 M) was “significantly and strongly decreased the release of IL-6; also recorded: strongly and significantly diminished”; in series [1] (10^−6 M) it was “significantly and strongly decreased the release of IL-6; also recorded: strongly and significantly diminished”; in series [1] (10^−7 M), “significantly and strongly decreased the release of IL-6; also recorded: strongly and significantly diminished”. Further, the “NHDF Migration (+MMC) (colonization of the acellular area)” value in series [2] (10^−7M) and in series [2] (10^−8M) was “significantly increase the colonization of the acellular area; also recorded: significant activity” throughout. Also, in series [2] (absence of MMC, all four concentrations (10^−7M to 10^−10M)), the “colonization of the cell-free area by NHDF, overall” value is “not able to significantly increase the colonization of the cell-free area”. The “radioactivity based on total dose/tissue, non-pigmented skin” value in series [3] is on record as 1.1%. In series [3], the “radioactivity based on total dose/tissue, pigmented skin” value was determined as 1.7%. Further, the “impact on lipid and triglyceride level” value in series [4] was “very limited impact on lipid and triglyceride level”. Also, the “fibroblast migration / in vitro wound closure” value in series [5] is reported as “promotes in vitro wound closure to a similar extent as E2; also recorded: as effective as E2 in promoting fibroblast migration”.
